# Results reported in ChEMBL document CHEMBL1133244, “Solid-phase synthesis of an arylsulfone hydroxamate library” (Bioorg Med Chem Lett, 2000).
# The source made the active and inactive calls. No cut-off for these calls is given here.
# Assays:
# [1] = target: T1, 72 kDa type IV collagenase (Homo sapiens, UniProt P08253)
# Description: In vitro inhibition of human recombinant Matrix metalloprotease-2.
# [2] = In vitro for the inhibition of TNF alpha release by human peripheral blood monocytes (PBMs); format: functional
# Stromelysin-1 [3] = target: T2, Stromelysin-1 (Homo sapiens, UniProt P08254); experiment: In vitro inhibition of human recombinant Matrix metalloprotease-3.
# T2 sequence (P08254 whole entry, the tested form may be a part): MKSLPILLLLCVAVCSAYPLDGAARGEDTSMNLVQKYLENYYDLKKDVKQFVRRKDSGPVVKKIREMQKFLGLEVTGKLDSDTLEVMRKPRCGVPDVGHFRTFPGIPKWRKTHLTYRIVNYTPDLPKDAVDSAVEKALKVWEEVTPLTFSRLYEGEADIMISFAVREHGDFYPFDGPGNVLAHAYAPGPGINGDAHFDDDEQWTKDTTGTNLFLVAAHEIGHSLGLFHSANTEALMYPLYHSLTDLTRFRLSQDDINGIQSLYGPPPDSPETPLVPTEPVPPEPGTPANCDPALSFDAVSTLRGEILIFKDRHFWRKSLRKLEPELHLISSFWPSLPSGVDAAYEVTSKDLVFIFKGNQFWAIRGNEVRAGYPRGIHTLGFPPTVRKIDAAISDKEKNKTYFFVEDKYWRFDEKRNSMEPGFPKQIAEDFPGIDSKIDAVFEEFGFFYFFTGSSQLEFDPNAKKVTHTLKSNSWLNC
# [4] = target: Disintegrin and metalloproteinase domain-containing protein 17 (Homo sapiens) (UniProt P78536); experiment: Inhibitory activity against TACE
# Chain of Disintegrin and metalloproteinase domain-containing protein 17 (Homo sapiens) (P78536 whole entry, the tested form may be a part): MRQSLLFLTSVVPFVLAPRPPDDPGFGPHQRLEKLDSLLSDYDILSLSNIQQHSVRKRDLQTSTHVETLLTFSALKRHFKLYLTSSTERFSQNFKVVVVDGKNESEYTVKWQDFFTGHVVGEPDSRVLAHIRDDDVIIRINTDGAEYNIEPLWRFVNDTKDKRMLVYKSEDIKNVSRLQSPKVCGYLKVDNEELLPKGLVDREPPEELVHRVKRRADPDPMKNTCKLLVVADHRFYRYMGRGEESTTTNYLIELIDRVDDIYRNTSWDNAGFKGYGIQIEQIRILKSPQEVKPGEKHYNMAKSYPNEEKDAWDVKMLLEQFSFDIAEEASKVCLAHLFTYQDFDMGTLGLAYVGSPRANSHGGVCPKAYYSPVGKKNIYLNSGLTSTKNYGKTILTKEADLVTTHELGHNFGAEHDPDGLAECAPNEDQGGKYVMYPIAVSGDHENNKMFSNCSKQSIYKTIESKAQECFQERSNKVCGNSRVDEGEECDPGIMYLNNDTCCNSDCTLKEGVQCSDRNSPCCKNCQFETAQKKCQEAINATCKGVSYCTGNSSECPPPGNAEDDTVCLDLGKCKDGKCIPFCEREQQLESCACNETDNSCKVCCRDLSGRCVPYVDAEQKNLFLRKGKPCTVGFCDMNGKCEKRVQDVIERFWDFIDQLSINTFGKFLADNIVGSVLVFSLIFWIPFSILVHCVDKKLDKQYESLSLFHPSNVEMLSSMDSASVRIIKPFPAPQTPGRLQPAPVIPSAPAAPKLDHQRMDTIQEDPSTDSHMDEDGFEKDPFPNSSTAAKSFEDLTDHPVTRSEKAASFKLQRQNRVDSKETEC
# Interstitial collagenase [5] = target: T3, Interstitial collagenase (Homo sapiens, UniProt P03956); experiment: In vitro inhibition of human recombinant Matrix metalloprotease-1.
# T3 sequence (P03956 whole entry): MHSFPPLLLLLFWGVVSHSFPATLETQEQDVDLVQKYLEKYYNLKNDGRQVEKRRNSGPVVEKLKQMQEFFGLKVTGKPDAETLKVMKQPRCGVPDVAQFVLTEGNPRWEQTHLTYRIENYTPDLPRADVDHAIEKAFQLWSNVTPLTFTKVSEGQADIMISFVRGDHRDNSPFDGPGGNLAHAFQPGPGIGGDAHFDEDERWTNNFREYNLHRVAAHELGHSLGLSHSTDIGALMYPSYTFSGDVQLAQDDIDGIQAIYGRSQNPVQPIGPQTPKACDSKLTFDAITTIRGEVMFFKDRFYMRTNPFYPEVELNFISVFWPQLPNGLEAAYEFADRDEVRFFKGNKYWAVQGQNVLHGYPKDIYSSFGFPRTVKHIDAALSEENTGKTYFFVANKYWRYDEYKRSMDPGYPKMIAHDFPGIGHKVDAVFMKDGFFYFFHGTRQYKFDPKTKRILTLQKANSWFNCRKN
# [6] = target: T1, 72 kDa type IV collagenase; experiment: Inhibitory activity against recombinant matrix metalloprotease-2
# Interstitial collagenase [7] = target: T3, Interstitial collagenase; experiment: Inhibitory activity against recombinant matrix metalloprotease-1
# [8] = target: Phosphodiesterase 4 (Cavia porcellus); experiment: Phosphodiesterase 4 inhibitory activity measured against guinea pig macrophage homogenate
# Stromelysin-1 [9] = target: T2, Stromelysin-1; experiment: Inhibitory activity against recombinant matrix metalloprotease-3
# T1 sequence (P08253 whole entry): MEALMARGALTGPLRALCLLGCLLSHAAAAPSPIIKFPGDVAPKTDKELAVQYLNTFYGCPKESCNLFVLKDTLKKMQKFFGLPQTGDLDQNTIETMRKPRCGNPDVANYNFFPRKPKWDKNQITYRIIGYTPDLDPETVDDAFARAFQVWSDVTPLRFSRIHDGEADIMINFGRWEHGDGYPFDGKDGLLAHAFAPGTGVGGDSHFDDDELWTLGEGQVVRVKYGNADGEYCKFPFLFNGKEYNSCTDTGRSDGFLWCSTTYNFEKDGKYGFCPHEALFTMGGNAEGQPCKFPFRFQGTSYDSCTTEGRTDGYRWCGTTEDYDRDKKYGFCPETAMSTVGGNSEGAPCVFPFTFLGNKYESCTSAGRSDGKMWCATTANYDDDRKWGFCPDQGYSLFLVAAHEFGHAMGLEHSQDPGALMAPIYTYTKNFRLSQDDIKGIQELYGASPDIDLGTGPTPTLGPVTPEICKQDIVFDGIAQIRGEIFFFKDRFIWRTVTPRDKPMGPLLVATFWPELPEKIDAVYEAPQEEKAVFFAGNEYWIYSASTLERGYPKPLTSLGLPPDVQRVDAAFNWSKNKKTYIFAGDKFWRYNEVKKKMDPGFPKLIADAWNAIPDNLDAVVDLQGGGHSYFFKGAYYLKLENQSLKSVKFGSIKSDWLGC
Structure (SMILES),Ki [1],IC50 [2],Ki (Stromelysin-1 [3]),Activity [4],Ki (Interstitial collagenase [5]),IC50 [6],IC50 (Interstitial collagenase [7]),IC50 [8],IC50 (Stromelysin-1 [9])
CCOC(=O)C1CCCC(C(CC(=O)NO)S(=O)(=O)c2ccc(OC)cc2)C1 (stereo not given),0.0008 µM,4.6 µM,0.06 µM,inactive,1.01 µM,,,,
COc1ccc(S(=O)(=O)C(CC(=O)NO)CC(C)CC(C)(C)C)cc1 (stereo not given),0.027 µM,8 µM,0.676 µM,inactive,1.72 µM,,,,
COc1ccc(S(=O)(=O)C(CCOC(=O)N(C)c2ccccc2)CC(=O)NO)cc1OC1CCCC1 (stereo not given),,,,,,> 10 µM,> 10 µM,0.14 µM,> 10 µM
CCCCC(CC)C(CC(=O)NO)S(=O)(=O)c1ccc(OC)cc1 (stereo not given),0.004 µM,> 10 µM,0.184 µM,inactive,0.357 µM,,,,
COc1ccc(S(=O)(=O)C(CCc2ccc(Oc3ccccc3)cc2)CC(=O)NO)cc1OC1CCCC1 (stereo not given),,,,,,> 10 µM,> 10 µM,0.032 µM,> 10 µM
CCCCCCC(CC(=O)NO)S(=O)(=O)c1ccc(OC)c(OC2CCCC2)c1 (stereo not given),,,,,,> 10 µM,> 10 µM,0.0095 µM,> 10 µM
COc1ccc(S(=O)(=O)C(CC(=O)NO)c2cccc(OCc3ccccc3)c2)cc1OC1CCCC1 (stereo not given),,,,,,> 10 µM,> 10 µM,0.089 µM,> 10 µM
COc1ccc(S(=O)(=O)C(CC(=O)NO)C(C)c2ccccc2)cc1 (stereo not given),0.008 µM,> 10 µM,0.3 µM,inactive,1.71 µM,,,,
COc1ccc(S(=O)(=O)C(CCCCc2ccccc2)CC(=O)NO)cc1 (stereo not given),,> 10 µM,,inactive,,,,,
COc1ccc(S(=O)(=O)C(CCN(C)C(=O)OCc2ccccc2)CC(=O)NO)cc1OC1CCCC1 (stereo not given),,,,,,> 10 µM,> 10 µM,0.46 µM,> 10 µM
CCCCCCC(CC(=O)NO)S(=O)(=O)c1ccc(OC)cc1 (stereo not given),0.031 µM,1.4 µM,0.734 µM,inactive,9.59 µM,,,,
COc1ccc(S(=O)(=O)C(CC(=O)NO)c2ccccc2)cc1 (stereo not given),,> 10 µM,3.3 µM,inactive,> 10 µM,,,,
COc1ccc(S(=O)(=O)C(CCCc2ccccc2)CC(=O)NO)cc1OC (stereo not given),,0.009 µM,,inactive,,> 10 µM,> 10 µM,0.014 µM,> 10 µM
COc1ccc(S(=O)(=O)C(CCc2ccccc2)CC(=O)NO)cc1OC1CCCC1 (stereo not given),,,,,,> 10 µM,> 10 µM,0.031 µM,> 10 µM
COc1ccc(S(=O)(=O)C(CC(=O)NO)CC(C)C)cc1OC (stereo not given),,,,,,> 10 µM,> 10 µM,> 10 µM,> 10 µM
COc1ccc(S(=O)(=O)C(CCCCc2ccc3c(c2)OCO3)CC(=O)NO)cc1OC (stereo not given),,,,,,> 10 µM,> 10 µM,0.0064 µM,> 10 µM
COC(=O)c1ccc(C(CC(=O)NO)S(=O)(=O)c2ccc(OC)cc2)cc1 (stereo not given),0.088 µM,> 10 µM,4.42 µM,inactive,1.9 µM,,,,
COc1ccc(S(=O)(=O)C(CCCC(=O)N(C)c2ccccc2)CC(=O)NO)cc1OC1CCCC1 (stereo not given),,,,,,> 10 µM,> 10 µM,0.118 µM,> 10 µM
COc1ccc(S(=O)(=O)C(CC(=O)NO)c2ccc(OCc3ccccc3)cc2)cc1OC1CCCC1 (stereo not given),,,,,,> 10 µM,> 10 µM,0.021 µM,> 10 µM
CCCCC(CC(=O)NO)S(=O)(=O)c1ccc(OC)cc1 (stereo not given),0.03 µM,> 10 µM,0.404 µM,inactive,4.17 µM,,,,
COc1ccc(S(=O)(=O)C(CC(=O)NO)CC(C)C)cc1OC1CCCC1 (stereo not given),,,,,,> 10 µM,> 10 µM,0.102 µM,> 10 µM
COc1ccc(S(=O)(=O)C(CCCC(=O)N2CCCc3ccccc32)CC(=O)NO)cc1OC (stereo not given),,,,,,> 10 µM,> 10 µM,0.295 µM,> 10 µM
COc1ccc(S(=O)(=O)C(CC(=O)NO)c2ccc(Oc3ccccc3)cc2)cc1 (stereo not given),> 10 µM,0.73 µM,> 10 µM,inactive,> 10 µM,,,0.28 µM,
COc1ccc(S(=O)(=O)C(CC(=O)NO)C2CCCCC2)cc1 (stereo not given),0.008 µM,> 10 µM,0.086 µM,inactive,1.71 µM,,,,

Structure (SMILES),Ki [1],IC50 [2],Ki (Stromelysin-1 [3]),Activity [4],Ki (Interstitial collagenase [5]),IC50 [6],IC50 (Interstitial collagenase [7]),IC50 [8],IC50 (Stromelysin-1 [9])
COc1ccc(S(=O)(=O)C(CCC(=O)N2CCCc3ccccc32)CC(=O)NO)cc1OC (stereo not given),,,,,,> 10 µM,> 10 µM,0.564 µM,> 10 µM
COc1ccc(Oc2cccc(C(CC(=O)NO)S(=O)(=O)c3ccc(OC)c(OC4CCCC4)c3)c2)cc1 (stereo not given),,,,,,> 10 µM,> 10 µM,0.049 µM,> 10 µM
COc1ccc(S(=O)(=O)C(COCc2ccccc2)CC(=O)NO)cc1 (stereo not given),0.038 µM,> 10 µM,1.43 µM,inactive,> 10 µM,,,,
CCCC(CC(=O)NO)S(=O)(=O)c1ccc(OC)c(OC)c1 (stereo not given),,,,,,> 10 µM,> 10 µM,5.25 µM,> 10 µM
COc1ccc(S(=O)(=O)C(CCCc2ccccc2)CC(=O)NO)cc1 (stereo not given),0.044 µM,5 µM,1.39 µM,inactive,2.58 µM,,,,
COc1ccc(S(=O)(=O)C(CC(=O)NO)CN(C)C(=O)c2ccccc2)cc1OC1CCCC1 (stereo not given),,,,,,> 10 µM,> 10 µM,0.974 µM,> 10 µM
COc1ccc(S(=O)(=O)C(CCc2ccccc2)CC(=O)NO)cc1 (stereo not given),0.043 µM,> 10 µM,0.35 µM,inactive,2.16 µM,,,,
COc1ccc(C(=O)Nc2c(Cl)cncc2Cl)cc1OC1CCCC1,,0.005 µM,,,,,,,
COc1ccc(S(=O)(=O)C(CCCN2C(=O)c3ccccc3C2=O)CC(=O)NO)cc1OC1CCCC1 (stereo not given),,,,,,> 10 µM,> 10 µM,0.032 µM,> 10 µM
CCCC(CC(=O)NO)S(=O)(=O)c1ccc(OC)c(OC2CCCC2)c1 (stereo not given),,,,,,> 10 µM,> 10 µM,0.055 µM,> 10 µM
COc1ccc(S(=O)(=O)C(CCC2CCCCC2)CC(=O)NO)cc1 (stereo not given),0.036 µM,> 10 µM,0.59 µM,inactive,0.4 µM,,,,
COc1ccc(S(=O)(=O)C(CCc2ccc(OCc3ccccc3)cc2)CC(=O)NO)cc1OC (stereo not given),,,,,,> 10 µM,> 10 µM,0.064 µM,> 10 µM
COc1ccc(S(=O)(=O)C(CC(=O)NO)c2ccc(-c3ccccc3)cc2)cc1 (stereo not given),> 10 µM,4.4 µM,> 10 µM,inactive,> 10 µM,,,3.6 µM,
COc1ccc(S(=O)(=O)C(CC(=O)NO)c2ccc(OC(C)C)cc2)cc1 (stereo not given),> 10 µM,> 10 µM,> 10 µM,inactive,> 10 µM,,,,
COc1ccc(S(=O)(=O)C(CC(=O)NO)c2cccc(Oc3ccccc3)c2)cc1OC1CCCC1 (stereo not given),,,,,,> 10 µM,> 10 µM,0.26 µM,> 10 µM
COc1ccc(S(=O)(=O)C(CC(=O)NO)c2ccccc2OCc2ccccc2)cc1OC1CCCC1 (stereo not given),,,,,,> 10 µM,> 10 µM,1.5 µM,> 10 µM
COc1ccc(S(=O)(=O)C(CC(=O)NO)c2ccccc2)cc1OC (stereo not given),,0.45 µM,,inactive,,> 10 µM,> 10 µM,0.58 µM,> 10 µM
COc1ccc(S(=O)(=O)C(CCC(=O)N(C)c2ccccc2)CC(=O)NO)cc1OC1CCCC1 (stereo not given),,,,,,> 10 µM,> 10 µM,0.05 µM,> 10 µM
COc1ccc(S(=O)(=O)C(CCN(C)C(=O)c2ccccc2)CC(=O)NO)cc1OC1CCCC1 (stereo not given),,,,,,> 10 µM,> 10 µM,1.04 µM,> 10 µM
COc1ccc(S(=O)(=O)C(CCc2ccccc2)CC(=O)NO)cc1OC (stereo not given),,,,,,> 10 µM,> 10 µM,3.03 µM,> 10 µM
COc1ccc(S(=O)(=O)C(CCc2ccc(OCc3ccccc3)cc2)CC(=O)NO)cc1OC1CCCC1 (stereo not given),,,,,,> 10 µM,> 10 µM,0.063 µM,> 10 µM
COc1ccc(S(=O)(=O)C(CCC(=O)N2CCCc3ccccc32)CC(=O)NO)cc1OC1CCCC1 (stereo not given),,,,,,> 10 µM,> 10 µM,0.016 µM,> 10 µM
COc1ccc(S(=O)(=O)C(CCCC(=O)N2CCCc3ccccc32)CC(=O)NO)cc1OC1CCCC1 (stereo not given),,,,,,> 10 µM,> 10 µM,0.036 µM,> 10 µM
COc1ccc(S(=O)(=O)C(CC(=O)NO)c2ccc(OCc3ccccc3)cc2)cc1 (stereo not given),> 10 µM,1.2 µM,> 10 µM,inactive,> 10 µM,,,0.52 µM,
